Laboratory results: paper PMC8904451, “Novel chalcone-derived pyrazoles as potential therapeutic agents for the treatment of non-small cell lung cancer” (Scientific Reports, 2022)
Like-named read-outs stand apart in the source and are kept apart here.

Columns and labels:
Format in all cases: cell-based, human
[1] = system: A-549, H226, and H460 cells; assay: Annexin V/PI apoptosis assay by flow cytometry; details: 48 h, IC90, depending on the cell line; vehicle approximately 5%
Experimental: To examine whether the effect of PCH-1 on reducing the viability of lung cancer cells was the result of inducing apoptotic cell death, A-549, H226, and H460 cells were treated with the compound for 6, 24, and 48 h, and analyzed by Annexin V/propidium iodide (PI) double staining using flow cytometry (Fig. S1 in supplementary information). […] At 24 h of treatment with the compound, a slight increase in both early (Annexin V(+)/PI(−)) and late (Annexin V(+)/PI(+)) apoptotic fractions was observed. […] PI can enter only those cells with damaged plasma membrane, which enables to differentiate early apoptotic cells from late apoptotic and necrotic cells. Overall, biochemical changes involved in apoptotic cell death were prevailing, whereas necrotic changes were not observed. Furthermore, typical phenotypic features of cells undergoing apoptosis were visualized by fluorescent microscopy in Supplementary Fig. S2 and described in Supplementary Information.
Cells were seeded onto tissue culture plates and allowed to attach for 24 h. Next, the cells were treated with PCH-1 or Etoposide at IC90 concentration for 6, 24, and 48 h. […]

A-549 cells [2] = assay: MTT cell viability assay, A-549; details: for IC50: Homo sapiens, A549
Experimental: All the synthesized chalcone-derived pyrazoles were evaluated for their antiproliferative activity against three human non-small cell lung cancer cell lines: A-549, H226, and H460, and a nonmalignant human embryonic kidney cell line HEK293. Cisplatin and 5-fluorouracil (5-FU) were used as a reference. […] The results of the studies are expressed as the IC50 concentration that inhibits 50% growth of cells. […] Following treatment with PCH-1, the viability of all the tested cancer cell lines decreased in a concentration-dependent manner.
The cell viability assay was performed for A-549, H226, H460, and HEK293 cells after treatment with the test compounds by using the 3-(4,5-dimethylthiazol-2-yl)-2,5-diphenyltetrazolium bromide (MTT, Sigma-Aldrich) assay. Briefly, cells were seeded onto 96-well culture plates for attachment. After 24 h, triplicate wells were treated with DMSO (1%) and the agents. […] After 2–4 h of incubation, the medium was removed, and the formazan crystals were dissolved in 100 μl of DMSO. The absorption was measured at 450 nm with an ASYS UVM340 microplate reader (Biochrom Ltd.). The 50% inhibitory concentration (IC50) was defined as the concentration that reduced the absorbance of the DMSO-treated wells by 50% of the vehicle. The IC50 values were generated from GraphPad Prism 9 software by plotting the survival curve as a function of dose from 3 independent experiments.

A-549 cells [3] = assay: Intracellular ROS measurement (H2DCFDA, flow cytometry)
From the text: The generation of intracellular reactive oxygen species (ROS) causes an imbalance of cellular redox homeostasis, followed by damage of cellular components and cell death. Therefore, compounds with the ability to produce high levels of ROS and/or inhibit antioxidant processes are often used in anticancer therapies. In the present study, the effect of PCH-1 on ROS generation in A-549 cells was investigated by flow cytometry. As an indicator of ROS generation, the fluorescent probe 2ʹ,7ʹ-dichlorodihydrofluorescein diacetate (H2DCFDA) was used, which undergoes oxidation by ROS to form a highly fluorescent compound 2ʹ,7ʹ-dichlorofluorescein (DCF). As shown in Supplementary Fig. S6 in Supplementary Information, compound PCH-1 induced a massive amount of ROS in A-549 cells in a time-dependent manner. […] Moreover, the induction of ROS was equally high for PCH-1 and the reference compound H2O2 in all the tested time points.
For determination the ROS generation, cells were treated with IC90 of PCH-1, H2O2, or 1% DMSO for 3, 6, and 24 h. Next, a 1 µM CM-H2DCFDA (#C6827; Thermo-Fisher) probe was added to the cells in each plate 30 min before the end of the drug treatment. After incubation cells were collected by trypsinization, stained with 7-Aminoactinomycin D (7-AAD, Sigma-Aldrich), and measured. The analysis was performed with Guava EasyCyte 8 cell sorter (Merck Millipore) and FlowJo software v10. Each experiment was repeated independently three times.

A-549 cells [4] = assay: Cell cycle distribution by flow cytometry, cells synchronized with double-thymidine block; details: synchronized A-549, IC90, prolonged exposure (up to 10 h)
Experimental: Promising antiproliferative properties of PCH-1 led us to further investigate the effect of this compound on cell cycle distribution. Therefore, cell cycle progression was analyzed by quantifying DNA content using flow cytometry. […] To thoroughly analyze the course of the cycle, A-549 cells were synchronized with a double-thymidine block in the G1 phase and treated with IC90 concentration of PCH-1 for the indicated time. Slight alterations of the division cycle were visible after 2 h of incubation with the compound.
Cells were seeded onto tissue culture plates and allowed to attach for 24 h. Unsynchronized cells were treated with PCH-1 or Etoposide at IC90 concentration for 24 and 48 h, while synchronized cells were treated with PCH-1 or Etoposide at IC90 concentration for 2, 4, 6, 8, and 10 h. Synchronization of the cells was performed as described previously by Chen et al.[77]. Next, the cells were trypsinized, fixed in ice-cold 75% ethanol, and stored overnight at − 20 °C. After centrifugation, the cells were rinsed with PBS and stained with […] PI (Sigma-Aldrich) and […] RNaseA (Thermo Fisher) in PBS for 30 min at RT. The distribution of the cells in different phases of the cell cycle was determined by flow cytometry (Guava EasyCyte 8 cell sorter, Merck Millipore) and FlowJo software v10. Each experiment was repeated independently three times.

SMILES: COc1ccc(C2CC(c3cc4c(cc3OC)OCO4)=NN2C(C)=O)cc1 (stereo not drawn) [PCH-1, 1-[3-(6-methoxy-2H-1,3-benzodioxol-5-yl)-5-(4-methoxyphenyl)-4,5-dihydro-1H-pyrazol-1-yl]ethan-1-one]
- late apoptotic phase (Annexin V(+)/PI(+)) cells [1]: 30–60%
- superior activity to the reference compound Cisplatin, A-549 (A-549 cells [2]; 72 h IC50 ratio): approximately 6.7 fold
- IC50 (A-549 cells [2]; 72 h, MTT, read-out: IC50 ± SD, growth inhibition, A-549): 4.32 ± 0.28 µM
- IC50 (A-549 cells [2]; A-549, 24 h, read-out: IC50 after 24 h of treatment): 41.3 ± 0.75 µM
- IC50 (A-549 cells [2]; A-549, 48 h, read-out: IC50 after 48 h of treatment): 25.6 ± 0.97 µM
- increase of ROS towards vehicle control (A-549 cells [3]; A-549, IC90, 3 h): 15%
- increase of ROS towards vehicle control (A-549 cells [3]; A-549, IC90, 6 h): 56.9%
- increase of ROS towards vehicle control (A-549 cells [3]; A-549, IC90, 24 h): 68.1%
- increase in G2/M population as compared to control (A-549 cells [4]): 50.12%
